According to the supplement of paper PMC10307832:

How the values were obtained:
Assay in all cases: relative viability (nuclei count vs DMSO), 5 days (fraction); higher = more cells survive
[1] = compound: C[C@]1(O)C[C@@H](c2nc(-c3ccc4ccc(-c5ccccc5)nc4c3)c3c(N)nccn32)C1 [Linsitinib] + O=C(c1cc(Cc2n[nH]c(=O)c3ccccc23)ccc1F)N1CCN(C(=O)C2CC2)CC1 [Olaparib] (partner 8 µM)
How it was run: (§1)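 The day after seeding in 1536-well plates, lung cancer cell lines were treated by pin tool with a single drug, or with a fixed anchor-drug dose together with five library-drug doses (not always all listed) in √10 steps. After 5 days, a combined fix-and-stain solution (final 0.05% Triton X-100, 1% formaldehyde, 1 ug/ml Hoechst) was added. Nuclei counted on 4× images gave relative viability as treated counts over vehicle counts, reported as the median of duplicate plates.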

[2] = compound: C[C@]1(O)C[C@@H](c2nc(-c3ccc4ccc(-c5ccccc5)nc4c3)c3c(N)nccn32)C1 [Linsitinib] + N=C(N)NC(=N)NCCc1ccccc1 [Phenformin] (partner 250 µM)
How it was run: as §1

[3] = compound: Cc1ccc(C(=O)N(CCCN)[C@@H](c2nc3cc(Cl)ccc3c(=O)n2Cc2ccccc2)C(C)C)cc1 [Ispinesib] + C[C@@H](Oc1cc(-c2cnn(C3CCNCC3)c2)cnc1N)c1c(Cl)ccc(F)c1Cl [Crizotinib] (partner 1 µM)
How it was run: as §1

[4] = compound: Cc1ccc(C(=O)N(CCCN)[C@@H](c2nc3cc(Cl)ccc3c(=O)n2Cc2ccccc2)C(C)C)cc1 [Ispinesib] + N=C(N)NC(=N)NCCc1ccccc1 [Phenformin] (partner 250 µM)
How it was run: as §1

Cell Line	relative viability ([1]; first compound 0.01 µM)	relative viability ([1]; first compound 0.03162 µM)	relative viability ([1]; first compound 0.1 µM)	relative viability ([1]; first compound 1 µM)	relative viability ([2]; first compound 0.01 µM)	relative viability ([2]; first compound 0.03162 µM)	relative viability ([2]; first compound 0.1 µM)	relative viability ([2]; first compound 1 µM)	relative viability ([3]; first compound 0.001 µM)	relative viability ([3]; first compound 0.003162 µM)	relative viability ([3]; first compound 0.01 µM)	relative viability ([3]; first compound 0.03162 µM)	relative viability ([3]; first compound 0.1 µM)	relative viability ([4]; first compound 0.001 µM)	relative viability ([4]; first compound 0.003162 µM)	relative viability ([4]; first compound 0.01 µM)	relative viability ([4]; first compound 0.03162 µM)	relative viability ([4]; first compound 0.1 µM)	relative viability ([1]; first compound 0.3162 µM)	relative viability ([2]; first compound 0.3162 µM)
A-427	0.71	0.73	0.75	0.584	0.383	0.321	0.301	0.233	0.886	1.23	0.968	0.887	0.369	0.377	0.415	0.333	0.168	0.158		
NCI-H596	0.736	0.614	0.677	0.604	0.721	0.638	0.678	0.833	1.1	0.95	1	1.03	0.652	0.676	0.791	0.765	0.791	0.315	0.66	0.774
RERF-LC-KJ	0.933	0.884	0.841	0.538	0.408	0.368	0.463	0.409	0.884	0.83	0.982	0.587	0.301	0.422	0.365	0.33	0.217	0.253	0.847	0.425
NCI-H647	0.472	0.509	0.735	0.48	0.524	0.464	0.537	0.438	1.18	0.869	0.942	0.416	0.207	0.609	0.476	0.52	0.0907	0.126	0.442	
NCI-H1734	0.592	0.625	0.593	0.535	0.449	0.392	0.367	0.315	0.662	0.77	0.893	0.648	0.483	0.455	0.379	0.414	0.239	0.156	0.57	0.363
SK-LU-1	0.428	0.419	0.552	0.468	0.558		0.588	0.325	1.05	0.932	0.968	0.776	0.439	0.555	0.627	0.561	0.251	0.203	0.41	0.391
COR-L23	0.375	0.292	0.346	0.29	0.434	0.414	0.467	0.469	0.68	0.729	0.882	0.311	0.248	0.437	0.444	0.448	0.123	0.133	0.299	0.347
EMC-BAC-2	0.478	0.601	0.47	0.37	0.506	0.487	0.485	0.388	0.914	0.847	0.756	0.751	0.481	0.557	0.545	0.534	0.372	0.209	0.348	0.322
NCI-H1355	0.741	0.742	0.628	0.353	0.452	0.447	0.393	0.304	1.13	1.19	1.29	1.15	0.451	0.422	0.465	0.495	0.291	0.315	0.483	0.32
NCI-H1792	0.341	0.348	0.373	0.172	0.453	0.419	0.29	0.073	1.26	1.16	0.863	0.736	0.32	0.396	0.317	0.257	0.0806	0.154	0.298	0.166
NCI-H1944	0.437	0.521	0.4	0.382	0.217	0.259	0.192	0.159	1.2	1.16	1.18	0.697	0.573	0.199	0.247	0.206	0.167	0.106	0.333	0.165
ABC-1	0.859	1.04	0.785	0.626	0.241	0.209	0.238	0.233	1.1	1.15	0.908	0.248	0.334	0.278	0.223	0.289	0.197	0.226	1.09	0.237
HOP-62		0.247	0.524	0.393	0.663	0.718	0.677	0.61	0.966	1.04	0.792	0.976	0.918	0.774	0.728	0.709	0.632	0.225	0.244	
NCI-H2009	0.652	0.672	0.744	0.695	0.479	0.47	0.434	0.367	1.04	1.01	0.999	0.589	0.288	0.519	0.512	0.451	0.312	0.186	0.533	
